Experimental data from patent publication EP0341527A2, “Agent for increasing animal growth” (HOECHST AKTIENGESELLSCHAFT, priority 1988, dated 1989).

Tests used:
[1] = tested on: männlichen Ratten; assay: Feeding trial in male rats (growth, feed intake, feed conversion); assay type: in vivo; conditions: for Futterverwertung (g Futter/g Gewichtszunahme) relativ zur Kontrollgruppe in % / mittlere Futterverwertung relativ zur Kontrollgruppe in %: lower number = better feed conversion; for mittlere Futterverwertung relativ zur Kontrollgruppe in %: mean over 5-40 ppm Forskolin; for Futteraufnahme (g/d) / Futteraufnahme relativ zur Kontrolle / Gewicht (g) am Ende / Gewichtszunahme relativ zur Kontrolle (%): 28 d
Text: In einem Fütterungsversuch mit 60 männlichen Ratten im Gewichtsabschnitt von 40 bis 170 g Lebendmasse wurde die Wirkung von 5, 10, 20 und 40 ppm Forskolin im Futter bei zwei verschiedenen Proteingehalten der Diäten (15 und 20 Gew.-% für eine suboptimale bzw. optimale Versorgung) auf das Wachstum, die Futteraufnahme und die Futterverwertung im Vergleich zum Futter ohne Gehalt an Forskolin untersucht. Die Diäten (Zusammensetzung siehe Tabelle 1) waren mit 16,6 und 16,8 kJ/g Trockensubstanz isokalorisch. Jeweils sechs Tiere wurden mit Futter gleichen Gehalts an Forskolin und Protein gefüttert und die Resultate für die Auswertung ermittelt. Die jeweiligen sechs Tiere wurden zu je zweien in Makrolonkäfigen in einer Klimakammer bei konstant 25°C und 65 % relativer Luftfeuchte 28 Tage lang gehalten.

[2] = tested on: Männliche Lohmann-Masthähnchen; assay: Feeding trial in broilers (growth, feed intake, feed conversion); assay type: in vivo, Broilern; conditions: for Futteraufnahme (g/d) / Futteraufnahme, prozentualer Wert relativ zur Kontrollgruppe / Gewicht (Masse) am Ende, prozentualer Wert relativ zur Kontrollgruppe / Massezunahme, prozentualer Wert relativ zur Kontrollgruppe / Futterverwertung, prozentualer Wert relativ zur Kontrollgruppe / Gewicht (Masse) (g) am Ende / Massezunahme (g/d) / Futterverwertung g Futter/g Zunahme: 22 wt% protein; for Futterverwertung, prozentualer Wert relativ zur Kontrollgruppe / Futterverwertung g Futter/g Zunahme: lower = better; for Gewicht (Masse) (g) am Ende / Massezunahme (g/d) / Futterverwertung g Futter/g Zunahme: mean ± spread
Protocol: Männliche Lohmann-Masthähnchen mit einer Lebendmasse zwischen 35 und 45 g wurden in Gruppen von jeweils 20 Tieren pro Behandlung (100 cm²/Tier) auf einer Einstreu aus Hobelspänen bei 24-stündiger Beleuchtung und einer Temperatur von 36 ± 1°C bis zum 21. Versuchstag und 26 ± 1°C vom 22. bis zum 35. Versuchstag gehalten. Das Futter wurde ad libitum angeboten. Die Zusammensetzung des Futters (ohne Wirkstoff) ist in Tabelle 5 angegeben. Der Proteingehalt betrug 22 Gew.-% (entsprechend dem Bedarf). Forskolin wurde als Wurzelmehl über eine Glucose-Vormischung in die Ration eingebracht. Tabelle 5

[3] = 15 wt% crude protein diet, 5 ppm Forskolin in feed
[4] = 15 wt% crude protein diet, 10 ppm Forskolin in feed
[5] = 15 wt% crude protein diet, 20 ppm Forskolin in feed
[6] = 15 wt% crude protein diet, 40 ppm Forskolin in feed
[7] = 20 wt% crude protein diet, 5 ppm Forskolin in feed
[8] = 20 wt% crude protein diet, 10 ppm Forskolin in feed
[9] = 20 wt% crude protein diet, 20 ppm Forskolin in feed
[10] = 20 wt% crude protein diet, 40 ppm Forskolin in feed
[11] = 2 ppm Forskolin in feed (as root meal)
[12] = 4 ppm Forskolin in feed (as root meal)
[13] = 8 ppm Forskolin in feed (as root meal)
[14] = 16 ppm Forskolin in feed (as root meal)
[15] = 32 ppm Forskolin in feed (as root meal)
[16] = broilers, 'up to', 2-32 ppm Forskolin in feed

C=C[C@@]1(C)CC(=O)[C@]2(O)[C@@]3(C)[C@@H](O)CCC(C)(C)[C@@H]3[C@H](O)[C@H](OC(C)=O)[C@@]2(C)O1 [Forskolin]
Zuwachs ([1]; 15 % protein, 5 ppm Forskolin): ca. 91 g
Futterverwertung (g Futter/g Gewichtszunahme) relativ zur Kontrollgruppe in % ([1]; 15 % protein, 5 ppm Forskolin): 107,7%
Zuwachs ([1]; 15 % protein, 10 ppm Forskolin): ~115 g
Futterverwertung (g Futter/g Gewichtszunahme) relativ zur Kontrollgruppe in % ([1]; 15 % protein, 10 ppm Forskolin): 100,8%
Zuwachs ([1]; 15 % protein, 20 ppm Forskolin): ~122 g
Futterverwertung (g Futter/g Gewichtszunahme) relativ zur Kontrollgruppe in % ([1]; 15 % protein, 20 ppm Forskolin): 97,3%
Futterverwertung (g Futter/g Gewichtszunahme) relativ zur Kontrollgruppe in % ([1]; 15 % protein, 40 ppm Forskolin): 109,3%
mittlere Futterverwertung relativ zur Kontrollgruppe in % ([1]; 15 % protein): 103,7%
gesteigerte Zunahme an Lebendmasse im Vergleich zur entsprechenden Kontrollgruppe ([1]; 15 and 20 wt% protein, up to 20 ppm Forskolin, within 28 days, 'up to'): ≤ 39%
Gewichtszunahme (g/28 d) [1, 3]: 90,9 g/28 d
Futteraufnahme (g/d) [1, 3]: 9,07 g/d
Futteraufnahme relativ zur Kontrolle [1, 3]: 111,9
Gewicht (g) am Ende [1, 3]: 131,3 g
Gewichtszunahme relativ zur Kontrolle (%) [1, 3]: 103,6%
Gewichtszunahme (g/28 d) [1, 4]: 115,1 g/28 d
Futteraufnahme (g/d) [1, 4]: 10,70 g/d
Futteraufnahme relativ zur Kontrolle [1, 4]: 132,2
Gewicht (g) am Ende [1, 4]: 156,0 g
Gewichtszunahme relativ zur Kontrolle (%) [1, 4]: 131,2%
Gewichtszunahme (g/28 d) [1, 5]: 122,0 g/28 d
Futteraufnahme (g/d) [1, 5]: 11,00 g/d
Futteraufnahme relativ zur Kontrolle [1, 5]: 135,7
Gewicht (g) am Ende [1, 5]: 162,6 g
Gewichtszunahme relativ zur Kontrolle (%) [1, 5]: 139,1%
Gewichtszunahme (g/28 d) [1, 6]: 81,8 g/28 d
Futteraufnahme (g/d) [1, 6]: 8,26 g/d
Futteraufnahme relativ zur Kontrolle [1, 6]: 101,8
Gewicht (g) am Ende [1, 6]: 122,3 g
Gewichtszunahme relativ zur Kontrolle (%) [1, 6]: 93,3%
Futterverwertung erhöht ([1]; 20 % protein content, 'up to about', refers to mean feed conversion of Table 4): ≤ 8%
Futterverwertung (g Futter/g Gewichtszunahme) relativ zur Kontrollgruppe in % ([1]; 20 % protein, 5 ppm Forskolin): 92,4%
Zuwachs ([1]; 20 % protein, 10 ppm Forskolin): ~113 g
Futterverwertung (g Futter/g Gewichtszunahme) relativ zur Kontrollgruppe in % ([1]; 20 % protein, 10 ppm Forskolin): 93,8%
Zuwachs ([1]; 20 % protein, 20 ppm Forskolin): ~121 g
Futterverwertung (g Futter/g Gewichtszunahme) relativ zur Kontrollgruppe in % ([1]; 20 % protein, 20 ppm Forskolin): 90,5%
Futterverwertung (g Futter/g Gewichtszunahme) relativ zur Kontrollgruppe in % ([1]; 20 % protein, 40 ppm Forskolin): 92,0%
mittlere Futterverwertung relativ zur Kontrollgruppe in % ([1]; 20 % protein): 92,2%
Gewichtszunahme (g/28 d) [1, 7]: 117,6 g/28 d
Futteraufnahme (g/d) [1, 7]: 10,70 g/d
Futteraufnahme relativ zur Kontrolle [1, 7]: 115,7
Gewicht (g) am Ende [1, 7]: 157,7 g
Gewichtszunahme relativ zur Kontrolle (%) [1, 7]: 124,4%
Gewichtszunahme (g/28 d) [1, 8]: 112,9 g/28 d
Futteraufnahme (g/d) [1, 8]: 10,40 g/d
Futteraufnahme relativ zur Kontrolle [1, 8]: 112,4
Gewicht (g) am Ende [1, 8]: 153,2 g
Gewichtszunahme relativ zur Kontrolle (%) [1, 8]: 119,9%
Gewichtszunahme (g/28 d) [1, 9]: 120,5 g/28 d
Futteraufnahme (g/d) [1, 9]: 10,70 g/d
Futteraufnahme relativ zur Kontrolle [1, 9]: 115,7
Gewicht (g) am Ende [1, 9]: 161,9 g
Gewichtszunahme relativ zur Kontrolle (%) [1, 9]: 127,9%
Gewichtszunahme (g/28 d) [1, 10]: 103,1 g/28 d
Futteraufnahme (g/d) [1, 10]: 9,31 g/d
Futteraufnahme relativ zur Kontrolle [1, 10]: 100,6
Gewicht (g) am Ende [1, 10]: 143,0 g
Gewichtszunahme relativ zur Kontrolle (%) [1, 10]: 109,4%
Futteraufnahme (g/d) [2, 11]: 88,4 g/d
Futteraufnahme, prozentualer Wert relativ zur Kontrollgruppe [2, 11]: 104,0%
Gewicht (Masse) am Ende, prozentualer Wert relativ zur Kontrollgruppe [2, 11]: 108,5%
Massezunahme, prozentualer Wert relativ zur Kontrollgruppe [2, 11]: 109,0%
Futterverwertung, prozentualer Wert relativ zur Kontrollgruppe [2, 11]: 94,6%
Gewicht (Masse) (g) am Ende [2, 11]: 1715,2±196,2 g
Massezunahme (g/d) [2, 11]: 45,4±5,4 g/d
Futterverwertung g Futter/g Zunahme [2, 11]: 1,97±0,24 g Futter/g Zunahme
Futteraufnahme (g/d) [2, 12]: 86,2 g/d
Futteraufnahme, prozentualer Wert relativ zur Kontrollgruppe [2, 12]: 101,6%
Gewicht (Masse) am Ende, prozentualer Wert relativ zur Kontrollgruppe [2, 12]: 106,4%
Massezunahme, prozentualer Wert relativ zur Kontrollgruppe [2, 12]: 106,0%
Futterverwertung, prozentualer Wert relativ zur Kontrollgruppe [2, 12]: 95,7%
Gewicht (Masse) (g) am Ende [2, 12]: 1682,5±253,7 g
Massezunahme (g/d) [2, 12]: 44,4±6,9 g/d
Futterverwertung g Futter/g Zunahme [2, 12]: 1,99±0,38 g Futter/g Zunahme
Futteraufnahme (g/d) [2, 13]: 83,8 g/d
Futteraufnahme, prozentualer Wert relativ zur Kontrollgruppe [2, 13]: 98,7%
Gewicht (Masse) am Ende, prozentualer Wert relativ zur Kontrollgruppe [2, 13]: 103,9%
Massezunahme, prozentualer Wert relativ zur Kontrollgruppe [2, 13]: 104,3%
Futterverwertung, prozentualer Wert relativ zur Kontrollgruppe [2, 13]: 93,8%
Gewicht (Masse) (g) am Ende [2, 13]: 1643,0±192,3 g
Massezunahme (g/d) [2, 13]: 43,5±5,3 g/d
Futterverwertung g Futter/g Zunahme [2, 13]: 1,95±0,24 g Futter/g Zunahme
Futteraufnahme (g/d) [2, 14]: 86,7 g/d
Futteraufnahme, prozentualer Wert relativ zur Kontrollgruppe [2, 14]: 102,0%
Gewicht (Masse) am Ende, prozentualer Wert relativ zur Kontrollgruppe [2, 14]: 103,1%
Massezunahme, prozentualer Wert relativ zur Kontrollgruppe [2, 14]: 103,4%
Futterverwertung, prozentualer Wert relativ zur Kontrollgruppe [2, 14]: 97,9%
Gewicht (Masse) (g) am Ende [2, 14]: 1629,5±242,4 g
Massezunahme (g/d) [2, 14]: 43,1±6,6 g/d
Futterverwertung g Futter/g Zunahme [2, 14]: 2,04±0,33 g Futter/g Zunahme
Futteraufnahme (g/d) [2, 15]: 86,4 g/d
Futteraufnahme, prozentualer Wert relativ zur Kontrollgruppe [2, 15]: 101,8%
Gewicht (Masse) am Ende, prozentualer Wert relativ zur Kontrollgruppe [2, 15]: 103,9%
Massezunahme, prozentualer Wert relativ zur Kontrollgruppe [2, 15]: 103,9%
Futterverwertung, prozentualer Wert relativ zur Kontrollgruppe [2, 15]: 97,2%
Gewicht (Masse) (g) am Ende [2, 15]: 1642,7±182,9 g
Massezunahme (g/d) [2, 15]: 43,3±5,0 g/d
Futterverwertung g Futter/g Zunahme [2, 15]: 2,02±0,28 g Futter/g Zunahme
Futterverwertung verbessert [2, 16]: ≤ 7%
Lebendmassezunahme gegenüber der Kontrollgruppe verbessert [2, 16]: ≤ 9%
